# Experiments:
# human CYP11B1 = molecular target: T1, human CYP11B1 (Homo sapiens, UniProt P15538); experiment: Inhibition of hCYP11B1 in transfected V79 cells; format: cell-based; conditions: hamster V79 cells expressing human CYP11B1; substrate 11-deoxycortisol 200 nM
# T1 construct: expressed in transfected cells
# T1 sequence (P15538 25-503): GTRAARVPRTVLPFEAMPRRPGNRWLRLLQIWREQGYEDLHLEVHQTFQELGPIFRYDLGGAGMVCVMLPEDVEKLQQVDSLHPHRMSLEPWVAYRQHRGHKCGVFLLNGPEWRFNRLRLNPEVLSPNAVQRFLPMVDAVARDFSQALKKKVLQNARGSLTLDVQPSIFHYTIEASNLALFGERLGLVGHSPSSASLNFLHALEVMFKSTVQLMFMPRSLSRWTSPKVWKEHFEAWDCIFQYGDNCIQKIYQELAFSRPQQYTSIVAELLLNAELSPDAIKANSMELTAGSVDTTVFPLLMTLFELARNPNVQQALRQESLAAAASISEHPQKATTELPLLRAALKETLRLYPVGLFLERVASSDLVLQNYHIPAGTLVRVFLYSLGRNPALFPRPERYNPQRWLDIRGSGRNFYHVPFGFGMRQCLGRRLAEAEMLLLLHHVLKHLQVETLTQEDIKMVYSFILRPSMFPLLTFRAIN
# In short: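 Reactions started with 200 nM 11-deoxycortisol, ran for 30 min and were stopped with ethyl acetate, after a 2 h compound preincubation. The host was stably transfected V79 hamster cells carrying human CYP11B1 plus rat P450 reductase. Percent inhibition, from LC-MS/MS or HPLC (260 nm) quantitation of substrate and product, gave the IC50.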
# human CYP11B2 = molecular target: T2, human CYP11B2 (Homo sapiens, UniProt P19099); experiment: Inhibition of hCYP11B2 in transfected V79 cells; format: cell-based; conditions: hamster V79 cells expressing human CYP11B2; substrate 11-deoxycorticosterone 200 nM
# T2 construct: expressed in transfected cells
# T2 sequence (P19099 25-503): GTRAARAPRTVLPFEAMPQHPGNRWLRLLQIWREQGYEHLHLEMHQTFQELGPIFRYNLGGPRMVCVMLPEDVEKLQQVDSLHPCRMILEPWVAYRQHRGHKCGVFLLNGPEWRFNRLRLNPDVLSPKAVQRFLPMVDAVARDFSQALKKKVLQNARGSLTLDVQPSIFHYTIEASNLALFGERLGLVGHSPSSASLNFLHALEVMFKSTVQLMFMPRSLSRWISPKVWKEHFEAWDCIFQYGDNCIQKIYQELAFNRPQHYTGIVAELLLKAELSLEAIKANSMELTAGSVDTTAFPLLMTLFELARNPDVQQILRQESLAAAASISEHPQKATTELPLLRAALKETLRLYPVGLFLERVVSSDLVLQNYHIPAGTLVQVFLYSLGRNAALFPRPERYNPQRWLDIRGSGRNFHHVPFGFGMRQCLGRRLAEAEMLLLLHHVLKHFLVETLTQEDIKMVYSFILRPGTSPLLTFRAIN
# In short: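 The substrate (200 nM, 30 min) was added after a 2 hour compound pre-incubation in lentivirus-transduced V79 cells stably expressing human CYP11B2 plus rat NADPH-P450 reductase.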
SMILES,IC50 (human CYP11B1) [nM],IC50 (human CYP11B2) [nM]
"O=S(=O)(C1CN(C2COC2)C1)N1CCSc2c(-c3cc4cc(Cl)ccc4o3)cncc21 [S103, 8-(5-Chlorobenzofuran-2-yl)-4-((1-(oxetan-3-yl)azetidin-3-yl)sulfonyl)-3,4-dihydro-2H-pyrido[4,3-b][1,4]thiazine]",955,5
"N#Cc1ccc(-c2cncc3c2OCCN3S(=O)(=O)C2CC(Cc3ccccc3)=NO2)cc1 (stereo not shown) [O103, 4-(4-((3-benzyl-4,5-dihydroisoxazol-5-yl)sulfonyl)-3,4-dihydro-2H-pyrido[4,3-b][1,4]oxazin-8-yl)benzonitrile]",79,0.5
"N#Cc1ccc(-c2cncc3c2OCCN3S(=O)(=O)c2cccc([N+](=O)[O-])c2)cc1 [O10, 4-(4-((3-Nitrophenyl)sulfonyl)-3,4-dihydro-2H-pyrido[4,3-b][1,4]oxazin-8-yl)benzonitrile]",2.8,0.41
"COc1ccccc1C(=O)N1CCc2c(-c3ccc(C#N)cc3)cncc21 [C34, 4-(1-(2-Methoxybenzoyl)-2,3-dihydro-1H-pyrrolo[2,3-c]pyridin-4-yl)benzonitrile]",284,22
"Cc1cccc(CC(=O)N2CCOc3c(-c4ccc(C#N)cc4)cncc32)c1 [O43, 4-(4-(2-(m-Tolyl)acetyl)-3,4-dihydro-2H-pyrido[4,3-b][1,4]oxazin-8-yl)benzonitrile]",125,4.7
"N#Cc1ccc(-c2cncc3c2SCCN3S(=O)(=O)C2CN(S(=O)(=O)c3cccc(F)c3)C2)cc1 [S75, 4-(4-((1-((3-Fluorophenyl)sulfonyl)azetidin-3-yl)sulfonyl)-3,4-dihydro-2H-pyrido[4,3-b][1,4]thiazin-8-yl)benzonitrile]",12,0.7
"O=C(c1ccccc1F)N1CCc2c(-c3cccc([N+](=O)[O-])c3)cncc21 [C53, (2-Fluorophenyl)(4-(3-nitrophenyl)-2,3-dihydro-1H-pyrrolo[2,3-c]pyridin-1-yl)methanone]",378,11
"O=C(c1ccc(F)cc1)n1ccc2c(-c3ccc4ncoc4c3)cncc21 [E38, (4-(Benzo[d]oxazol-6-yl)-1H-pyrrolo[2,3-c]pyridin-1-yl)(4-fluorophenyl)methanone]",49,8
"COc1ccc(S(=O)(=O)N2CCSc3c(-c4cn[nH]c4)cncc32)cc1 [S39, 4-((4-Methoxyphenyl)sulfonyl)-8-(1H-pyrazol-4-yl)-3,4-dihydro-2H-pyrido[4,3-b][1,4]thia zine]",137,264
"COc1cccc(S(=O)(=O)N2CC(S(=O)(=O)N3CCSc4c(-c5ccc(C#N)cc5)cncc43)C2)c1 [S79, 4-(4-((1-((3-Methoxyphenyl)sulfonyl)azetidin-3-yl)sulfonyl)-3,4-dihydro-2H-pyrido[4,3-b][1,4]thiazin-8-yl)benzonitrile]",16,0.8
"COc1ccc(C(=O)N2CCSc3c(-c4cc5cc(C#N)ccc5o4)cncc32)cc1 [S98, 2-(4-(4-Methoxybenzoyl)-3,4-dihydro-2H-pyrido[4,3-b][1,4]thiazin-8-yl)benzofuran-5-carbonitrile]",1160,11
"COc1ccc(S(=O)(=O)N2CCSc3c(-c4ccc(F)c(C)c4)cncc32)cc1 [S33, 8-(4-Fluoro-3-methylphenyl)-4-((4-methoxyphenyl)sulfonyl)-3,4-dihydro-2H-pyrido[4,3-b][1,4]thiazine]",5.4,0.09
"N#Cc1ccc(-c2cncc3c2ccn3S(=O)(=O)c2ccc(Cl)cc2)cc1 [E8, 4-(1-((4-Chlorophenyl)sulfonyl)-1H-pyrrolo[2,3-c]pyridin-4-yl)benzonitrile]",0.6,0.1
"N#Cc1ccc(-c2cncc3c2OCCN3C(=O)[C@@H]2CCN(Cc3cccc(F)c3)C2)cc1 [O105, (R)-4-(4-(1-(3-Fluorobenzyl)pyrrolidine-3-carbonyl)-3,4-dihydro-2H-pyrido[4,3-b][1,4]oxazin-8-yl)benzonitrile]",650,29
"Cn1cnc2cncc(-c3ccc(C#N)cc3)c21 [N6, 4-(1-Methyl-1H-imidazo[4,5-c]pyridin-7-yl)benzonitrile]",661,655
"N#Cc1ccc(-c2cncc3c2SCCN3S(=O)(=O)c2ccc(C#N)cc2)cc1 [S21, 4-((8-(4-Cyanophenyl)-2,3-dihydro-4H-pyrido[4,3-b][1,4]thiazin-4-yl)sulfonyl)benzonitrile]",15,0.3
"COc1ccc(C(=O)N2CC(C(=O)N3CCOc4c(-c5ccc(C#N)cc5)cncc43)C2)cc1 [O77, 4-(4-(1-(4-Methoxybenzoyl)azetidine-3-carbonyl)-3,4-dihydro-2H-pyrido[4,3-b][1,4]oxazin-8-yl)benzonitrile]",195,2
"N#Cc1ccc(-c2cncc3c2OCCN3S(=O)(=O)c2ccc(F)cc2)cc1 [O2, 4-(4-((4-Fluorophenyl)sulfonyl)-3,4-dihydro-2H-pyrido[4,3-b][1,4]oxazin-8-yl)benzonitrile]",0.56,0.13
"N#Cc1ccc(-c2cncc3c2OCCN3C(=O)C(F)(F)F)cc1 [O35, 4-(4-(2,2,2-Trifluoroacetyl)-3,4-dihydro-2H-pyrido[4,3-b][1,4]oxazin-8-yl)benzonitrile]",101,0.9
"N#Cc1ccc(CN2CC(C(=O)N3CCOc4c(-c5ccc(C#N)cc5)cncc43)C2)cc1 [O81, 4-(4-(1-(4-Cyanobenzyl)azetidine-3-carbonyl)-3,4-dihydro-2H-pyrido[4,3-b][1,4]oxazin-8-yl)benzonitrile]",72,0.6
"O=C(C1CN(Cc2cccc(F)c2)C1)N1CCOc2c(-c3ccc4ncsc4c3)cncc21 [O88, (8-(Benzo[d]thiazol-6-yl)-2,3-dihydro-4H-pyrido[4,3-b][1,4]oxazin-4-yl)(1-(3-fluorobenzyl)azetidin-3-yl)methanone]",485,6
"COc1ccc(S(=O)(=O)N2CCSc3c(-c4ccc(C(F)(F)F)cc4)cncc32)cc1 [S32, 4-((4-methoxyphenyl)sulfonyl)-8-(4-(trifluoromethyl)phenyl)-3,4-dihydro-2H-pyrido[4,3-b][1,4]thiazine]",468,10.3
"N#Cc1ccc(-c2cncc3c2CCN3S(=O)(=O)c2ccccc2)cc1 [C21, 4-(1-(Phenylsulfonyl)-2,3-dihydro-1H-pyrrolo[2,3-c]pyridin-4-yl)benzonitrile]",0.01,0.01
"N#Cc1ccc(S(=O)(=O)N2CCOc3c(-c4cc5cc(C#N)ccc5o4)cncc32)cc1 [O129, 2-(4-((4-Cyanophenyl)sulfonyl)-3,4-dihydro-2H-pyrido[4,3-b][1,4]oxazin-8-yl)benzofuran-5-carbonitril]",243,1.9
"N#Cc1ccc(-c2cncc3c2ccn3C(=O)c2ccccc2F)cc1 [E28, 4-(1-(2-Fluorobenzoyl)-1H-pyrrolo[2,3-c]pyridin-4-yl)benzonitrile]",17,2.1
"N#Cc1ccc(-c2cncc3c2OCCN3C(=O)C2CN(C(=O)c3cccc(F)c3)C2)cc1 [O58, 4-(4-(1-(3-Fluorobenzoyl)azetidine-3-carbonyl)-3,4-dihydro-2H-pyrido[4,3-b][1,4]oxazin-8-yl)benzonitrile]",132,1.9
"N#Cc1ccc(-c2cncc3c2CCN3S(=O)(=O)c2ccc3ccccc3c2)cc1 [C12, 4-(1-(Naphthalen-2-ylsulfonyl)-2,3-dihydro-1H-pyrrolo[2,3-c]pyridin-4-yl)benzonitrile]",0.3,0.17
"N#Cc1ccc(-c2cncc3c2ccn3C(=O)c2ccccc2[N+](=O)[O-])cc1 [E29, 4-(1-(2-Nitrobenzoyl)-1H-pyrrolo[2,3-c]pyridin-4-yl)benzonitrile]",9,2.5
"N#Cc1ccc(-c2cncc3c2CCN3S(=O)(=O)c2cccc([N+](=O)[O-])c2)cc1 [C9, 4-(1-((3-Nitrophenyl)sulfonyl)-2,3-dihydro-1H-pyrrolo[2,3-c]pyridin-4-yl)benzonitrile]",0.5,0.3

# Reference: patent publication US20260092074A1, “Annelated Pyridines as Steroidogenesis Inhibitors, Preparation Method and Use Thereof” (Guangzhou Vinnocent Pharmaceutical Limited, priority 2022, published 2026)
